Like-named read-outs stand apart in the source and are kept apart here.
Assays:
N. fowleri trophozoites = test: Amoebicidal assay against N. fowleri trophozoites (Trypan blue); format: cell-based, Naegleria fowleri; settings: for minimal effective concentration / EC50: Naegleria fowleri; for minimal effective concentration: compared to solvent control, p < 0.05, 24 h, read-out: Lowest concentration showing significant amoebicidal activity against N. fowleri; for EC50: 24 h, read-out: Half maximal effective concentration (EC50), N. fowleri; for Amoebicidal activity against N. fowleri: summary in discussion, concentration not given
Procedure: (§1) Amoebicidal assays were performed as previously described. Briefly, 5 × 10^5 amoebae (N. fowleri and B. mandrillaris cells) were incubated with drugs and/or solvents in 24-well plates in RPMI-1640. Amoebae were incubated with RPMI-1640 for negative controls while DMSO and ethanol were used as solvent control. For the positive control, the anti-amoebic drug, 100 μM miltefosine was used. Plates were incubated at 37 °C and 5% CO2 for 24 h. Next, 0.1% Trypan blue was added to each well. […] The number of live cells (i.e., unstained) was counted using a haemocytometer to determine amoebicidal effects of various compounds. The data are representative of the mean ± standard error of several experiments performed in duplicate.
(§2) Figure 1 The amoebicidal activities of compounds against N. fowleri trophozoites. N. fowleri trophozoites were incubated with various concentrations of compounds for 24 h and trophozoites viability was determined using Trypan blue. Percentage amoebicidal activity was calculated by: [((RPMI cell count − cell count for sample)/RPMI cell count) × 100)]. The activities of solvents alone were negated from the activities of the compounds. The data is presented as the mean ± standard error (*: p < 0.05, **: p < 0.01, ***: p < 0.001 using student t-test; two tailed distribution).

[1] = test system: B. mandrillaris trophozoites; test: Amoebicidal assay against B. mandrillaris trophozoites (Trypan blue); format: cell-based, Balamuthia mandrillaris; settings: for EC50: Balamuthia mandrillaris, 24 h, read-out: Half maximal effective concentration (EC50), B. mandrillaris; for Amoebicidal activity against B. mandrillaris: summary in discussion, concentration not given
Procedure: as §1
as §2, with “Figure 2” for “Figure 1”, “against B. mandrillaris” for “against N. fowleri”, “trophozoites. B. mandrillaris” for “trophozoites. N. fowleri”

N. fowleri cysts = test: Excystation assay, N. fowleri cysts; format: cell-based, Naegleria fowleri; settings: 100 μM, after negating effects of solvent alone; for inhibition at 100 µM: Naegleria fowleri, read-out: Inhibition of excystation of N. fowleri
Procedure: (§3) Briefly, 5 × 10^5 amoebae cysts (N. fowleri and B. mandrillaris cells) were incubated with 100 μM drugs and/or solvent in 24-well plates containing RPMI-1640 on HeLa monolayers at 37 °C and 5% CO2 until around 75% of the cysts in RPMI-1640 alone have excysted. The RPMI-1640 alone was used as a negative control while DMSO and ethanol were used as a solvent control and 100 μM miltefosine was used as positive control. Live trophozoites (amoebae that excysted) were then quantified by counting live (unstained) cells, after addition of 0.1% Trypan blue to each well, using a haemocytometer. Percentage inhibition is defined as: [(Number of trophozoites in untreated well − Number of trophozoites in treated well)/Number of trophozoites in untreated well)] × 100. The data are representative of the mean ± standard error of several independent experiments performed in duplicate.
(§4) Figure 3 (A) Inhibition of excystation of N. fowleri cysts. N. fowleri cysts were incubated with 100 μM drugs and/or solvent in 24-well plates containing RPMI-1640 on HeLa monolayers for 24 h and number of viable trophozoites were then enumerated. Percentage inhibition of excystation was calculated by: [((RPMI trophozoite cell count − trophozoite cell count for sample)/RPMI trophozoite cell count) × 100)]. The activities of solvents alone were negated from the activities of the compounds. The data is presented as the mean ± standard error (*: p ˂ 0.05, **: p < 0.01, ***: p < 0.001 using student t-test; two tailed distribution). (B) Inhibition of excystation of B. mandrillaris cysts. B. mandrillaris cysts were incubated with 100 μM drugs and/or solvent in 24-well plates containing RPMI-1640 on HeLa monolayers for 24 h and number of viable trophozoites were then enumerated. Percentage inhibition of excystation was calculated by: [((RPMI trophozoite cell count − trophozoite cell count for sample)/RPMI trophozoite cell count) × 100)]. The activities of solvents alone were negated from the activities of the compounds. The data is presented as the mean ± standard error (*: p ˂ 0.05, **: p < 0.01, ***: p < 0.001 using student t-test; two tailed distribution).

B. mandrillaris cysts = test: Excystation assay, B. mandrillaris cysts; format: cell-based; settings: Balamuthia mandrillaris; 100 μM, after negating effects of solvent alone; read-out: Inhibition of excystation of B. mandrillaris
Procedure: as §3, §4

HaCaT cells = format: cell-based, human; settings: LDH release, 24 h, concentration not given
Procedure: Cytotoxic effects of the drugs were determined as previously described^21. Briefly, the cytotoxic activity of the drugs was investigated against HaCaT cells. […] The LDH assay protocol is based on an enzymatic reaction, i.e., LDH released from the cell oxidizes lactate to generate NADH, which then reacts with water-soluble tetrazolium salt (WST) to generate a yellow color. The intensity of the generated color correlates directly with the number of lyzed cells. Following this, 1% Triton X-100 was added to the positive control well and incubated the plate for 60 min at 37 °C. For negative control, human cells were grown in RPMI alone well. Then, an equal amount of cells supernatant (comprising LDH enzyme) from each well was combined with equal amount of LDH kit reagents and cytotoxicity was determined in proportion to LDH released from human cells using a spectrophotometer at 490 nm. The percentage LDH released was determined as follows: [(Absorbance of sample − Absorbance of control)/(Absorbance for total LDH release − Absorbance of control)] × 100 = percentage cytotoxicity.
Figure 4 Cytotoxic effects of compounds against human cells are depicted. Various concentrations of compounds were incubated with human cells for 24 h at 37 °C and 5% CO2. RPMI alone was used as negative control and triton X-100 was used as positive control. Data are presented as the mean ± standard error of 2 experiments conducted in duplicates.

[2] = parameters: method as in PMID 29206032, PMID 32548431; settings: ref [24],[25],[26]; cited from earlier work

| SMILES | minimal effective concentration (N. fowleri trophozoites) [µM] | EC50 (N. fowleri trophozoites; trophozoites, Trypan blue) [µM] | Amoebicidal activity against N. fowleri (N. fowleri trophozoites) [%] | EC50 ([1]; trophozoites, Trypan blue) [µM] | Amoebicidal activity against B. mandrillaris [1] [%] | inhibition at 100 µM (N. fowleri cysts) [%] | inhibition at 100 µM (B. mandrillaris cysts) [%] | Cytotoxicity against HaCaT cells (HaCaT cells) | BBB Permeability [2] | EC50 (N. fowleri trophozoites) [µM] | EC50 [1] [µM] | Inhibition of excystation of N. fowleri (N. fowleri cysts) |
| --- | --- | --- | --- | --- | --- | --- | --- | --- | --- | --- | --- | --- |
| CCC1=C(C)CN(C(=O)NCCc2ccc(S(=O)(=O)NC(=O)NC3CCC(C)CC3)cc2)C1=O (stereo not drawn) [Glimepiride, 4-ethyl-3-methyl-N-[2-[4-[(4-methylcyclohexyl)carbamoylsulfamoyl]phenyl]ethyl]-5-oxo-2H-pyrrole-1-carboxamide] | 12.5 | 5.2 | 92 | 63.6 | 54 | 53 | < 10 | 6% | Positive | – | – | – |
| CC(C)C1CCC(C(=O)N[C@H](Cc2ccccc2)C(=O)O)CC1 (stereo partly drawn) [Nateglinide, (2R)-3-phenyl-2-[(4-propan-2-ylcyclohexanecarbonyl)amino]propanoic acid] | ≥ 6.25 | 44.4 | 64 | 136 | 39 | 42 | 57 | 2% | Positive | – | – | – |
| C[C@H]1O[C@H](O[C@H]2[C@H](O)[C@@H](O)[C@@H](O[C@H]3[C@H](O)[C@@H](O)C(O)O[C@@H]3CO)O[C@@H]2CO)[C@H](O)[C@@H](O)[C@@H]1N[C@H]1C=C(CO)[C@@H](O)[C@H](O)[C@H]1O (stereo partly drawn) [Acarbose, (3R,4R,5S,6R)-5-[(2R,3R,4R,5S,6R)-5-[(2R,3R,4S,5S,6R)-3,4-dihydroxy-6-methyl-5-[[(1S,4R,5S,6S)-4,5,6-trihydroxy-3-(hydroxymethyl)cyclohex-2-en-1-yl]amino]oxan-2-yl]oxy-3,4-dihydroxy-6-(hydroxymethyl)oxan-2-yl]oxy-6-(hydroxymethyl)oxane-2,3,4-triol] | ≥ 25 | – | 74 | – | 60 | 17 | < 10 | – | Negative | 3.6 | 80.8 | – |
| CCOc1cc(CC(=O)N[C@@H](CC(C)C)c2ccccc2N2CCCCC2)ccc1C(=O)O [Repaglinide, 2-ethoxy-4-[2-[[(1S)-3-methyl-1-(2-piperidin-1-ylphenyl)butyl]amino]-2-oxoethyl]benzoic acid] | 50 | 14.3 | – | 31.8 | – | 49 | < 10 | did not exhibit any cytotoxicity | Negative | – | – | – |
| N#C[C@@H]1CCCN1C(=O)CNC12CC3CC(CC(O)(C3)C1)C2 [Vildagliptin, (2S)-1-[2-[(3-hydroxy-1-adamantyl)amino]acetyl]pyrrolidine-2-carbonitrile] | ≥ 3.13 | 100 | – | – | – | – | 14 | did not exhibit any cytotoxicity | Positive | – | – | did not inhibit excystation |

— paper PMC9220410, “Antiamoebic Properties of Laboratory and Clinically Used Drugs against Naegleria fowleri and Balamuthia mandrillaris” (Antibiotics, 2022)
